For this experiment, the system named is CD2F1 mice, intracerebral L1210 leukemia, survival T/C. Kind of experiment: NCI In Vivo Anticancer Drug Screen. Data for tumor model L1210 Leukemia (intracerebral) in CD2F1 (CDF1) mice. As to conditions: higher = longer survival. The procedure: The antitumor activity of compounds was measured in mice bearing transplantable tumors. Survival or tumor size were measured and the results are expressed as the measurement made in the treated group (T) divided by the measurement made in the vehicle treated control group (C). The tumor model used in this assay is L1210 Leukemia (intracerebral) in CD2F1 (CDF1) mice

Setting [1] is: endpoint: median survival time, dose: 20.0 mg/kg/injection, schedule: Q01DX001 (ip), vehicle: saline + alcohol.
[2] abbreviates: endpoint: median survival time, dose: 40.0 mg/kg/injection, schedule: Q01DX001 (ip), vehicle: saline + alcohol.

Several values for one entry are separate records, joined by “and”; a condition that tells them apart may be missing. Identical values can stand only once. Toxic doses and inconclusive results are not listed.

The results in this text go back to PubChem BioAssay AID260 (DTP/NCI, 2004).

In the case of `O=NN(CCCl)C(=O)NCCCl`, the T/C by setting is: (endpoint: mean survival time, dose: 10.0 mg/kg/injection, schedule: Q01DX001 (ip), vehicle: saline) 175 % of control; (endpoint: mean survival time, dose: 15.0 mg/kg/injection, schedule: Q01DX002 (ip), vehicle: saline + alcohol) 184 % of control; (endpoint: mean survival time, dose: 20.0 mg/kg/injection, schedule: Q01DX001 (ip), vehicle: saline + alcohol) 169 % of control and 182 % of control; (endpoint: mean survival time, dose: 20.0 mg/kg/injection, schedule: Q01DX001 (ip), vehicle: saline) 210 % of control and 254 % of control; (endpoint: mean survival time, dose: 20.0 mg/kg/injection, schedule: Q01DX002 (ip), vehicle: saline + alcohol) 281 % of control; (endpoint: mean survival time, dose: 25.0 mg/kg/injection, schedule: Q01DX002 (ip), vehicle: saline + alcohol) 348 % of control. Besides, the T/C runs as follows: (endpoint: mean survival time, dose: 30.0 mg/kg/injection, schedule: Q01DX001 (ip), vehicle: saline + alcohol) 220 % of control and 319 % of control; (endpoint: mean survival time, dose: 30.0 mg/kg/injection, schedule: Q01DX002 (ip), vehicle: saline + alcohol) 184 % of control; (endpoint: mean survival time, dose: 40.0 mg/kg/injection, schedule: Q01DX001 (ip), vehicle: saline + alcohol) 343 % of control; (endpoint: mean survival time, dose: 40.0 mg/kg/injection, schedule: Q01DX001 (ip), vehicle: saline) 202 % of control; (endpoint: median survival time, dose: 4.0 mg/kg/injection, schedule: Q01DX001 (ip), vehicle: saline + alcohol) 93 % of control; (endpoint: median survival time, dose: 8.0 mg/kg/injection, schedule: Q01DX001 (ip), vehicle: saline + alcohol) 97 % of control. Also, the T/C reads like this: (endpoint: median survival time, dose: 12.5 mg/kg/injection, schedule: Q01DX001 (ip), vehicle: DMSO) 173 % of control; (endpoint: median survival time, dose: 16.0 mg/kg/injection, schedule: Q01DX001 (ip), vehicle: saline + alcohol) 97 % of control; (endpoint: median survival time, dose: 20.0 mg/kg/injection, schedule: Q01DX001 (ip), vehicle: distilled water + alcohol) 305 % of control; under setting [1], 190 % of control; (endpoint: median survival time, dose: 24.0 mg/kg/injection, schedule: Q01DX001 (ip), vehicle: saline + alcohol) 122 % of control and 153 % of control and 270 % of control; (endpoint: median survival time, dose: 25.0 mg/kg/injection, schedule: Q01DX001 (ip), vehicle: DMSO) 253 % of control. Besides, the T/C reads like this: (endpoint: median survival time, dose: 30.0 mg/kg/injection, schedule: Q01DX001 (ip), vehicle: saline + alcohol) 201 % of control and 313 % of control; (endpoint: median survival time, dose: 40.0 mg/kg/injection, schedule: Q01DX001 (ip), vehicle: distilled water + alcohol) 183 % of control; under setting [2], 220 % of control; (endpoint: median survival time, dose: 60.0 mg/kg/injection, schedule: Q01DX001 (ip), vehicle: saline + alcohol) 166 % of control.

Take `N[C@H](C(=O)O)[C@@H]1CC(Cl)=NO1`: the T/C was 124 % of control (endpoint: mean survival time, dose: 16.0 mg/kg/injection, schedule: Q01DX009 (ip), vehicle: saline) and 101 % of control (endpoint: mean survival time, dose: 32.0 mg/kg/injection, schedule: Q01DX009 (ip), vehicle: saline).

On to `CN(N=O)C(N)=O`, for which the T/C is 98 % of control (endpoint: median survival time, dose: 0.5 mg/kg/injection, schedule: Q01DX009 (ip), vehicle: saline + alcohol); 105 % of control (endpoint: median survival time, dose: 1.0 mg/kg/injection, schedule: Q01DX009 (ip), vehicle: saline + alcohol); 105 % of control (endpoint: median survival time, dose: 2.0 mg/kg/injection, schedule: Q01DX009 (ip), vehicle: saline + alcohol); 89 % of control (endpoint: median survival time, dose: 2.5 mg/kg/injection, schedule: Q01DX001 (ip), vehicle: saline); 114 % of control (endpoint: median survival time, dose: 4.0 mg/kg/injection, schedule: Q01DX009 (ip), vehicle: saline + alcohol); 92 % of control (endpoint: median survival time, dose: 5.0 mg/kg/injection, schedule: Q01DX001 (ip), vehicle: saline). The T/C (endpoint: median survival time, dose: 10.0 mg/kg/injection, schedule: Q01DX001 (ip), vehicle: saline + alcohol) is 102 % of control; the T/C (endpoint: median survival time, dose: 10.0 mg/kg/injection, schedule: Q01DX001 (ip), vehicle: saline) is 94 % of control; the T/C (endpoint: median survival time, dose: 16.0 mg/kg/injection, schedule: Q01DX009 (ip), vehicle: saline + alcohol) was 196 % of control; the T/C under setting [1] was 105 % of control; the T/C (endpoint: median survival time, dose: 20.0 mg/kg/injection, schedule: Q01DX001 (ip), vehicle: saline) was 103 % of control; the T/C under setting [2] was 107 % of control. Besides, the T/C reads like this: (endpoint: median survival time, dose: 40.0 mg/kg/injection, schedule: Q01DX001 (ip), vehicle: saline) 121 % of control; (endpoint: median survival time, dose: 80.0 mg/kg/injection, schedule: Q01DX001 (ip), vehicle: saline + alcohol) 112 % of control; (endpoint: median survival time, dose: 80.0 mg/kg/injection, schedule: Q01DX001 (ip), vehicle: saline) 110 % of control.

For the compound `C[C@]1(O)CC[C@H]2[C@@H]3CCC4=CC(=O)CC[C@]4(C)[C@@]3(F)[C@@H](O)C[C@@]21C`, the T/C reads like this: (endpoint: median survival time, dose: 8.0 mg/kg/injection, schedule: Q01DX009 (ip), vehicle: saline with Tween-80) 112 % of control; (endpoint: median survival time, dose: 16.0 mg/kg/injection, schedule: Q01DX009 (ip), vehicle: saline with Tween-80) 112 % of control; (endpoint: median survival time, dose: 32.0 mg/kg/injection, schedule: Q01DX009 (ip), vehicle: saline with Tween-80) 104 % of control; (endpoint: median survival time, dose: 64.0 mg/kg/injection, schedule: Q01DX009 (ip), vehicle: saline with Tween-80) 104 % of control; (endpoint: median survival time, dose: 128.0 mg/kg/injection, schedule: Q01DX009 (ip), vehicle: saline with Tween-80) 122 % of control; (endpoint: median survival time, dose: 256.0 mg/kg/injection, schedule: Q01DX009 (ip), vehicle: saline with Tween-80) 104 % of control. For the same compound, the T/C (endpoint: median survival time, dose: 512.0 mg/kg/injection, schedule: Q01DX009 (ip), vehicle: saline with Tween-80) is 96 % of control.
